Test results from patent US20110039714A1, “Probes, Systems, and Methods for Drug Discovery” (priority 2001, published 2011).

Target: T1, thrombin (Bos taurus, UniProt P00735)
T1 construct: purchased Sigma T-3399
Experiment: biological assay for thrombin inhibitory activity (fluorogenic substrate)
Format: biochemical
Details: for inhibition at 50 µM: test probe concentration 50 μM; for inhibition at 100 µM: test probe concentration 100 μM
Experimental: The biological assay (28320) for thrombin inhibitory activity is detailed below. To Nunc 96-well black fluorescence plate wells is added 70 microliters of assay buffer, followed by 10 microliters of 1 millimolar substrate solution. Test probe (10 microliters in 30% DMSO) is then added to wells according to the desired concentrations for the assay. The mixture is incubated at 37° C. for 5 minutes, followed by addition of 10 microliters of thrombin (100 micrograms/mL in assay buffer), to make a final assay volume of 100 microliters. The plate is mixed gently and incubated 15 minutes at 37° C. Stop buffer (100 microliters) is added, and the plate is read by detecting emission at 460 nm. Percent inhibition of test compound is calculated by comparison with control wells. “Assay buffer” is composed of 100 mM KH2PO4, 100 mM Na2HPO4, 1 mM EDTA, 0.01% BRIJ-35, and 1 mM dithiothreitol (added fresh on the day assay is preformed). “Stop buffer” is composed of 100 mM Na—O(O)CCH2Cl and 30 mM sodium acetate which is brought to pH 2.5 with glacial acetic acid. Thrombin was purchased from Sigma (cat #T-3399). Thrombin substrate III fluorogenic was purchased from ICN (cat #195915). Sodium acetate, dithiothreitol, and Brij-35 were purchased from Sigma. Sodium monochloroacetate was purchased from Lancaster 223-498-3. Glacial acetic acid was purchased from Alfa Aesar (cat #33252). Thrombin was stored at −20° C. Thrombin substrate fluorogenic was stored at −20° C. (5 mM in DMSO).
Results are expressed as percentage inhibition at a given test probe concentration in the Table below;

| Structure (SMILES) | inhibition at 50 µM | inhibition at 100 µM |
| --- | --- | --- |
| CCCCN(CCCC)CCCNC(=O)c1cc(Cl)ccc1NC(=O)c1n[nH]c2ccccc12 [Example B2] | 10 to 39% | 40 to 74% |
| C[C@@H](NC(=O)C(NC(=O)c1n[nH]c2ccccc12)C1CCNCC1)c1ccccc1 (stereo partly drawn) [Example B3] | 10 to 39% | 40 to 74% |
| COc1ccc(CNC(=O)c2cc(Cl)ccc2NC(=O)c2n[nH]c3ccccc23)cc1OC [Example B1] | 10 to 39% | 40 to 74% |
